Source: patent US12240844B2 (Voronoi, Inc., priority 2019, dated 2025)

Legend:
SHP-77 = SHP-77 cancer cell proliferation inhibition (Cell Titer-Glo); type: cell-based; details: Homo sapiens, SHP77, SHP-77 small cell lung cancer cell line, 72 hours
Procedure, shortened: (§1)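 GI50 comes from CellTiter-Glo luminescence, read 10 min after reagent addition at RT, following 72 h compound treatment. Eleven concentrations were used (⅓ steps, highest 10 μM final) on 2000 cells/well. MDA-MB-231 and MDA-MB-468 were grown in DMEM, SHP-77 in RPMI.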

human DYRK1A and Tau = test: Tau phosphorylation inhibition, ClariCELL Kinase Cell-Based Assay (Carnabio)
Procedure, shortened: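 HEK293 cells transiently expressing human DYRK1A and Tau were exposed to compound, then lysed. Released Tau was captured on plate and its phosphorylation quantified by ELISA with a phospho-Tau-specific antibody.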

TTK = molecular target: T1, TTK (Homo sapiens, UniProt P33981); test: TTK enzyme inhibition, ADP-Glo kinase assay; type: biochemical; parameters: purchased Signalchem T20-10G; details: ATP 5 μM
T1 sequence (P33981 1-857): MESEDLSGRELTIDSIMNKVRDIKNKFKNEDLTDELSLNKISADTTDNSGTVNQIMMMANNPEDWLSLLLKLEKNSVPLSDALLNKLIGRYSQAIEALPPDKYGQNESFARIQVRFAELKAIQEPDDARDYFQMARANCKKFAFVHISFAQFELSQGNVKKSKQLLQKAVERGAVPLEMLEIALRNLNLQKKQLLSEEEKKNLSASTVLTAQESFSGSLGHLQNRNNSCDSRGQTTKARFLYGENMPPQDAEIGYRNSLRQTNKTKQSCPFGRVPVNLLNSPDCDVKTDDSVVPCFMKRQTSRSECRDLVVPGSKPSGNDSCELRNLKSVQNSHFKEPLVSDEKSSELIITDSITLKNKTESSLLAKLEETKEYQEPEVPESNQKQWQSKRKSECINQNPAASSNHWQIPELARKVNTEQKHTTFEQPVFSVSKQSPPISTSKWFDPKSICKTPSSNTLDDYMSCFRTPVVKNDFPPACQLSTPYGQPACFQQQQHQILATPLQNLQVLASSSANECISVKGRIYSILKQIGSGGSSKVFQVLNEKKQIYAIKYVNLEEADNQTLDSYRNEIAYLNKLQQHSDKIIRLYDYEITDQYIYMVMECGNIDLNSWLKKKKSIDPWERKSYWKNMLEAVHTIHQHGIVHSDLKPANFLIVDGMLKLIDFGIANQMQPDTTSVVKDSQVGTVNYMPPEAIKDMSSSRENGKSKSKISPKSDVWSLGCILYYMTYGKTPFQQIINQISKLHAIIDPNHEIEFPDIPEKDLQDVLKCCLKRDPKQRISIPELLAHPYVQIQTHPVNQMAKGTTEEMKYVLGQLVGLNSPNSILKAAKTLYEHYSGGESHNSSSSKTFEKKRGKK
Procedure: In order to evaluate the inhibitory activity of the compounds according to the present invention on LRRK2, LRRK2 (G2019S), DYRK1, CLK1 and TTK kinases, the following experiment was performed.
Example compounds were reacted with the purified human TTK (Signalchem #T20-10G) enzyme to evaluate the enzyme inhibitory ability as follows. The reaction buffer was used as the composition of 40 mM Tris-HCl pH7.4, 20 mM MgCl2, 0.1 mg/ml BSA (5× kinase buffer, Signalchem #K03-09) and 50 μM DTT (Signalchem #D86-09B), and the reaction of all test materials was performed on the reaction buffer. The compound was diluted with 10 mM DMSO stock in […] by a serial dilution method, and the enzyme activity was measured at the final compound concentrations of 1, 0.333333, 0.111111, 0.037037, 0.012346, 0.004115, 0.001372, 0.000457, 0.000152, 0.000051 and 0.000017 μM. In the test, the human TTK (7.5 ng) enzyme was reacted with the purified ATP (5 μM, Promega #V6930) and an MBP enzyme substrate (0.2 μg, Signalchem M42-51N) at 25° C. for 4 hours, and then the enzyme activity was identified using the in vitro ADP-Glo™ kinase assay (Promega #V6930). The enzyme activity reaction liquid, an ADP-Glo reaction liquid and an enzyme potency detection solution were reacted in a ratio of 2:2:1, and the degree of inhibition of enzyme activity was measured by luminescence. The degree of inhibition of enzyme activity according to the treatment concentrations of the respective compounds was calculated based on the luminescence degree of the enzyme activity of a solvent control group that was not treated with the compound, where the concentration of each compound to inhibit enzyme activity inhibition by 50% was determined as an IC50 (nM) value and obtained using Prism (Version 8.2, GraphPad) software.
(§2) In the table below, the following designations were used for the evaluation of enzyme inhibitory ability.

[1] = molecular target: T2, LRRK2, LRRK2 (G2019S), DYRK1, CLK1 and TTK kinases (Homo sapiens, UniProt Q13627); test: Enzyme IC50 by Kinase HotSpot service (Reaction Biology Corporation), values marked with *; type: biochemical; details: DYRK1, ATP 10 uM
T2 construct: other: DYRK1; Kinase HotSpot service (Reaction Biology), ATP 10 uM
Procedure: (§3) Meanwhile, the enzyme IC50 measurement for some compounds was performed using Kinase HotSpot service (Reaction Biology Corporation); during the test, the ATP concentration was 10 uM, where all were conducted under the same condition; and the concentration of the compound was measured by giving a 3-fold concentration gradient with the highest concentration of […], where the values measured using Kinase HotSpot service (Reaction Biology Corporation) were marked with “*”.
(§4) All experimental methods were performed as provided in Kinase HotSpot Customer Protocol (http://www.reactionbiology.com//Kinase_Assay_Protocol).
as §2

[2] = molecular target: T3, LRRK2, LRRK2 (G2019S), DYRK1, CLK1 and TTK kinases (Homo sapiens, UniProt Q5S007, G2019S); test: as above; type: biochemical; details: LRRK2 (G2019S), ATP 10 uM
T3 construct: other: LRRK2 (G2019S); Kinase HotSpot service (Reaction Biology), ATP 10 uM
T3 sequence (Q5S007 whole entry G2019S): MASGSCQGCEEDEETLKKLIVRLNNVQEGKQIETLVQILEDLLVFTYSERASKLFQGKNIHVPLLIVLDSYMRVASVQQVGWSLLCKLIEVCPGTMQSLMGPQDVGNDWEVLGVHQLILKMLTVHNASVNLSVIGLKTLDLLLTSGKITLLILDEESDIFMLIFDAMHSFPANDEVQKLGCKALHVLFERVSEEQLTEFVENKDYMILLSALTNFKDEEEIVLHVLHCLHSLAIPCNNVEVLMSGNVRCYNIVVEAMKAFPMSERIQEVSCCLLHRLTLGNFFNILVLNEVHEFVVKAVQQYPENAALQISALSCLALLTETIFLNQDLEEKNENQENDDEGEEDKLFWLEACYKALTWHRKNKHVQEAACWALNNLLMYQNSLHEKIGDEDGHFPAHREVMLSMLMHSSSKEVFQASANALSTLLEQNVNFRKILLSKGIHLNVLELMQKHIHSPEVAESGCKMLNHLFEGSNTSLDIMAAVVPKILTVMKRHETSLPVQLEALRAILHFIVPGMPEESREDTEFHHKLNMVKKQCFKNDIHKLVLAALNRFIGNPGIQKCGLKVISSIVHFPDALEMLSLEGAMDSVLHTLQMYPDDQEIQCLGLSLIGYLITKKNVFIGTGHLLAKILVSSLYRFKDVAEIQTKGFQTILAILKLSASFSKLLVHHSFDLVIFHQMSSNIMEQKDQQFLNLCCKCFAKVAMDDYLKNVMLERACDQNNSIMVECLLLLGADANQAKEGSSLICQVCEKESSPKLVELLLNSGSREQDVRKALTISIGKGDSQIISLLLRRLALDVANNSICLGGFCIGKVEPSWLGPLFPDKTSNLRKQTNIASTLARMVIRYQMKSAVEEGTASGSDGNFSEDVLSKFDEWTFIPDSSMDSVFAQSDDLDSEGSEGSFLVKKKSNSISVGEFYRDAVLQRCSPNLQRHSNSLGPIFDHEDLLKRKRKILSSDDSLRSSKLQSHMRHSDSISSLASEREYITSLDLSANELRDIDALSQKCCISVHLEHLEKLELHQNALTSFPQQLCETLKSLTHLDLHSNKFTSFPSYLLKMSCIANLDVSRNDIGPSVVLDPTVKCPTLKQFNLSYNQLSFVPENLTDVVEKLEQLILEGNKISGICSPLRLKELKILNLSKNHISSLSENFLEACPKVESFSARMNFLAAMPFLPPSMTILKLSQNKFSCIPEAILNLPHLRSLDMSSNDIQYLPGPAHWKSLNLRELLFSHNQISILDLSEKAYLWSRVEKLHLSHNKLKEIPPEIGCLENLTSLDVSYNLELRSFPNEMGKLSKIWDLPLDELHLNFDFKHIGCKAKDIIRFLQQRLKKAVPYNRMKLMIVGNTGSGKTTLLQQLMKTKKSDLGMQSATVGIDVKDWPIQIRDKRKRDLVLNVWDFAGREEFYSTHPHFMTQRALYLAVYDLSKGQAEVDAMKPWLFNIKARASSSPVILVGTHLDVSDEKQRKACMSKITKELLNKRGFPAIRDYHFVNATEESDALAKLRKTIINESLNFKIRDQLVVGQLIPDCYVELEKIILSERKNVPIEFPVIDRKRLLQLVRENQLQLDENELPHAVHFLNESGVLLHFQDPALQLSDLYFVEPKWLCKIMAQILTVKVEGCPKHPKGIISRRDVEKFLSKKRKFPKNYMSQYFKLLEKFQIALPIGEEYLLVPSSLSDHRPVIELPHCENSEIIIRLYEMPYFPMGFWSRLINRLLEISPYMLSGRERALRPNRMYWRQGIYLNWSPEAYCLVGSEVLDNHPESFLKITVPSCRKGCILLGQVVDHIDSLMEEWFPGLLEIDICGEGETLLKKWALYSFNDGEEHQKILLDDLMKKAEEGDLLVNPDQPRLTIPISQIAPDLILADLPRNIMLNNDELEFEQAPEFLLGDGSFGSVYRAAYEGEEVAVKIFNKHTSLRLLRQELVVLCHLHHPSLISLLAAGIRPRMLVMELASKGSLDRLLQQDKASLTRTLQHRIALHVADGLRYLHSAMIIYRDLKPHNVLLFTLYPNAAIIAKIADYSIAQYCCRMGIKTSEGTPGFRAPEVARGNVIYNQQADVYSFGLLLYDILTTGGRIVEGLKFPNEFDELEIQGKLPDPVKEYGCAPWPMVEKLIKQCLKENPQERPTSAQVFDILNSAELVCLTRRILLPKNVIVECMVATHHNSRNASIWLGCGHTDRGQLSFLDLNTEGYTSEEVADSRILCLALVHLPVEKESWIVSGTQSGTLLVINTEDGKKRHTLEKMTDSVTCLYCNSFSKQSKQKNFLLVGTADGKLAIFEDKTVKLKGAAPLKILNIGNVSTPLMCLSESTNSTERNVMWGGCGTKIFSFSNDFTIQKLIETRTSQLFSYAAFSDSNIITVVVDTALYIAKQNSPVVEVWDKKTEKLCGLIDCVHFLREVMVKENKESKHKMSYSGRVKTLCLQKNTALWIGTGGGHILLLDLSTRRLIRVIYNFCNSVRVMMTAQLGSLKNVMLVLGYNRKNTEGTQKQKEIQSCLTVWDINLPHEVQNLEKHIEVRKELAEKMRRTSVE
Procedure: as §3, §4, §2

[3] = molecular target: T4, LRRK2, LRRK2 (G2019S), DYRK1, CLK1 and TTK kinases (Homo sapiens, UniProt P49759); test: as above; type: biochemical; details: CLK1, ATP 10 uM
T4 construct: CLK1 IC50 (marked with *); other: CLK1; Kinase HotSpot service (Reaction Biology), ATP 10 uM
T4 sequence (P49759 whole entry, stated change not applied): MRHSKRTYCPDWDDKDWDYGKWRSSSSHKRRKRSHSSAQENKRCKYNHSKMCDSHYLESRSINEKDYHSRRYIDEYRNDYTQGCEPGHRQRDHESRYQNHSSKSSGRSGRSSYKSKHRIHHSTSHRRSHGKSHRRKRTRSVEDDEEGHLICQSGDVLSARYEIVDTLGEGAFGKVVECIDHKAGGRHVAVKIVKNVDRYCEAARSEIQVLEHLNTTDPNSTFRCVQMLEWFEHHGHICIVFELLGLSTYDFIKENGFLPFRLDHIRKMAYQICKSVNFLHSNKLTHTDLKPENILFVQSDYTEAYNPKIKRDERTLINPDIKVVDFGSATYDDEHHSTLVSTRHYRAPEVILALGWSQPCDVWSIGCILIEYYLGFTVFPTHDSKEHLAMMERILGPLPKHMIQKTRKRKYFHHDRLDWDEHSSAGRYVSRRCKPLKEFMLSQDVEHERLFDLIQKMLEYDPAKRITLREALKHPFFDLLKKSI
Procedure: as §3, §4, §2

[4] = molecular target: T5, LRRK2, LRRK2 (G2019S), DYRK1, CLK1 and TTK kinases (Homo sapiens, UniProt Q5S007); test: as above; type: biochemical; details: LRRK2, ATP 10 uM
T5 construct: LRRK2 IC50 (marked with *); other: LRRK2; Kinase HotSpot service (Reaction Biology), ATP 10 uM
T5 sequence (Q5S007 whole entry G2019S): as the sequence (Q5S007 whole entry G2019S) above
Procedure: as §3, §4, §2

MDA-MB-231 cell line = test: MDA-MB-231 cancer cell proliferation inhibition (Cell Titer-Glo); type: cell-based; details: Homo sapiens, MDA-MB-231 triple-negative breast cancer cell line, 72 hours
Procedure, shortened: as §1

GI50 (SHP-77): 301 to 1000 nM | IC50 (TTK): < 100 nM | IC50 [1]: < 100 nM | IC50 [2]: < 100 nM | IC50 [3]: < 100 nM | IC50 [4]: < 100 nM | GI50 (MDA-MB-231 cell line): 301 to 1000 nM
Compound: COc1cc(S(=O)(=O)N2CCC(N3CCOCC3)CC2)ccc1Nc1cc(C2CC2)c2c(C(F)(F)F)c[nH]c2n1 [Example 223, 4-cyclopropyl-N-(2-methoxy-4-((4-morpholinopiperidin-1-yl)sulfonyl)phenyl)-3-(trifluoromethyl)-1H-pyrrolo[2,3-b]pyridin-6-amine]
inhibition at 0.25 µM (human DYRK1A and Tau; 0.25 uM): 4.6% | inhibition at 0.5 µM (human DYRK1A and Tau; 0.5 uM): 12.9% | inhibition at 1 µM (human DYRK1A and Tau; 1 uM): 29%
